A short description of data set [1]: in vitro. The conditions noted are these: for Papp at 6 h, 25 μg/mL: PAMPA; for Increase in Papp: with probiotic bacteria vs control without probiotics. Here is the method:
Hydrophobic MultiScreen PVDF microfiltration plates with 96 wells and a pore diameter of 0.45 μm (Millipore, USA) were used as acceptor plates and as supports for the artificial membrane. Each well of the acceptor plate was impregnated with 6 μL of a 2% lecithin solution in n-dodecane, and after solvent evaporation, an artificial membrane was formed. To the corresponding wells of the acceptor plate, 200 μL of PBS buffer (pH 7.4) was added, while 300 μL of the tested compound solution in respective buffer was added to the wells of the donor plate (MultiScreen Transport Receiver Plate, Millipore, USA). All analyses were conducted in triplicate at three different pH values in the donor compartment, while the pH value in the acceptor compartment was always 7.4. The donor plate was aligned with the acceptor plate to initiate incubation. Incubation of samples was performed at 37°C in a sealed PAMPA system to minimize oxygen exposure. […] Before HPLC injection, protein precipitation was achieved by diluting a 50 μL sample from the donor compartment fivefold with acetonitrile, followed by centrifugation at 15,000 rpm for 10 min at +4°C, as described by Đanić et al. ([Ðanić et al., 2019]). Subsequently, 100 μL of the supernatant was directly injected into the HPLC system.
After determining the concentrations of the tested compounds in the donor and acceptor wells, apparent permeability coefficients (Papp) were calculated and expressed in units of cm/s based on the equation: Papp=C×−ln 1−Ca/Ceq where C is a correction factor calculated as: C=Vd×Va/Vd+Va×S×t
The equilibrium drug concentration (Ceq) was determined using mass balance: Ceq=Cd×Vd+Ca×Va/Vd+Va
In these equations, Ca represents the drug concentration in the acceptor compartment after 6 h, Ceq is the equilibrium drug concentration determined based on mass balance, Va and Vd denote the volumes of the acceptor and donor compartments, respectively, measured in milliliters, t represents the time period over which permeability was assessed, expressed in seconds, and S refers to the membrane surface area in square centimeters. The surface area of the artificial membrane was calculated to be 0.24 cm^2, as the acceptor filter membrane plates have a surface area of 0.32 cm^2 and a porosity of 75%, according to the manufacturer’s data.
Sample analysis was performed using high-performance liquid chromatography (HPLC; Dionex) with a diode array detector (DAD). […] Briefly, the chromatographic analysis was performed using a reverse-phase Zorbax Eclipse Plus C18 column (150 mm × 2.1 mm, 5 μm; Agilent Technologies, USA), coupled with a Zorbax Extend C18 guard column (12.5 mm × 2.1 mm, 5 μm; Agilent Technologies, USA). During the analysis, the column temperature was maintained at a constant 25°C, and the injection volume was 20 μL. Elution was performed using an isocratic program, with the mobile phase consisting of 50% AcN and 50% phosphate buffer adjusted to pH 3.3 with orthophosphoric acid, with the addition of 0.5 mL triethylamine as a column modifier. The total analysis time was 5 min, with a constant flow rate of the mobile phase at 0.3 mL/min. […] The eluate was monitored using a UV/DAD detector at a wavelength of 276 nm.
(PAMPA measures passive passage across an artificial lipid membrane.)

For data set [2] the following is noted: pH 5.8, Henderson-Hasselbalch equation.
For data set [3] the following is noted: cited from earlier work.

The structures appear in SMILES notation.

Usually Papp stands for a coefficient for how fast a substance crosses the barrier. A low value points to slow passage. In general, logP refers to the decadic logarithm of the partition coefficient of the neutral form, usually between octanol and water. Turning to `Cn1cnc([N+](=O)[O-])c1Sc1ncnc2nc[nH]c12` [azathioprine], the Papp at 6 h, 25 μg/mL is 0.193 ± 0.014 ×10⁻⁶ cm/s in data set [1] (Permeability [Papp x10^−7] [cm/s]); below 1 ×10⁻⁶ cm/s in data set [1] (Permeability class across the PAMPA membrane); 0.134 ± 0.005 ×10⁻⁶ cm/s in data set [1] (pH 7.4, Permeability [Papp x10^−7] [cm/s]). Moreover, the “Rise of azathioprine levels in the acceptor compartment” value in data set [1] (incubated with probiotics, 6 h) is “less than 1%”. Besides, the figures for the “Increase in Papp” value in data set [1] (pH 5.8), in data set [1] (pH 6.5) and in data set [1] (pH 7.4) were 2.2 fold, 1.9 fold and 2.5 fold, respectively. The “Increase of azathioprine concentration in the acceptor compartment” value in data set [1] (with probiotics vs control without probiotics (AP vs. A), pH 5.8, 6 h) came out at 18%; in data set [1] (with probiotics vs control without probiotics (AP vs. A), pH 7.4, 6 h), 57%; in data set [1] (with probiotics vs control without probiotics, pH 6.5, 6 h), 26%. The Ionization percentage in data set [2] stood at 0.84%. In addition, in data set [3] (low solubility and low permeability, ref Bocci et al., 2022), the “Biopharmaceutics Classification System (BCS) class” value was “Class IV”. The logP in data set [3] (ref Hansch et al., 1996) was 0.1.
